The values that follow come from US20250339551A1, “AN ANTIBODY-DRUG CONJUGATE HAVING TWO OR MORE DIFFERENT FUNCTIONAL SMALL MOLECULES FOR ENHANCED TREATMENT OF REFRACTORY DISEASES” (HANGZHOU SEEHE BIOTECHNOLOGY CO., LTD, priority 2023, published 2025).

In general, IC50 refers to the midpoint of a concentration-inhibition curve. A higher IC50 goes with a need for much substance.

The subject of one assay is C4-2B cell line. Format: cell-based. The conditions noted are these: 120 hours incubation, MTT, n = DAR given with each label. From the text: The cell lines used in the cytotoxicity assays were: C4-2B Cells which was obtained from ATCC through license agreement with MD Anderson Cancer Center, Houston, TX, USA. 22RV1, A549, U87, NCI-N87, MKN-7, BxPC-3, JIMT-1, MDA-MB-231, SU86.86, SW1990, OVCAR-3, Calu-3, A431, AsPC-1, CFPAC-1, DMS53, HCC827 and NCI-H1975 cells were purchased from ATCC, Nanjing Cobioer and The Cell Bank of Shanghai Institute of Biochemistry and Cell Biology, and the others. C4-2B and PC-3-4H7 are both Steap1 and PSMA antigen high express cells, but medium expressed of both B7H3 and DLL3 antigens. 22RV1 is low express cells for Steap1, PSMA, B7H3 and DLL3 antigens. U87 is glioblastoma (GBM) cells, NCI-N87 and MKN-7 cell line are stable models of the gastric epithelium. A431 is human epidermoid carcinoma. JIM-1 is trastuzumab-resistant Her2 breast tumor cells. SU86.86, SW1990, CFPAC-1 and AsPC-1 are pancreatic cancer cell lines. OVCAR-3 is ovarian cancer cell lines. Calu-3, HCC827 and NCI-H1975 are a human lung adenocarcinoma. All these cells were grown according to the provider manuals. To run the assay, the cells (180 μl, 6000 cells) were added to each well in a 96-well plate and incubated for 24 hours at 37° C. with 5% CO2. Next, the cells were treated with test compounds (20 μl) at various concentrations in appropriate cell culture medium (total volume, 0.2 mL). The control wells contain cells and the medium but lack the test compounds. The plates were incubated for 120 hours at 37° C. with 5% CO2. MTT (5 mg/mL) was then added to the wells (20 μl) and the plates were incubated for 1.5 hr at 37° C. The medium was carefully removed and DMSO (180 μl) was added afterward. After it was shaken for 15 min, the absorbance was measured at 490 nm and 570 nm with a reference filter of 620 nm. The inhibition % was calculated according to the following equation: […]

Assay [1] concerns GUCY2C-9C9 colon cancer cells. The assay can be described thus: in vivo activity of anti GUCY2C ADCs (FIG. 15). The conditions noted are these: anti GUCY2C antibody drug conjugates, DAR=4.0˜4.2, one time administration, 3.0 mg/Kg, over 20 days, compared with anti GUCY2C antibody-GGFG-Dxd.
Another assay concerns PC-3-4G5 cells. In words: affinities against PC-3-4G5 cells (FIG. 9). Format: binding. The conditions noted are these: PC-3-4G5 only express highly Steap1 antigens. From the text:
Since PC-3-4G5 only express highly Steap1 antigens, thus both prepared vandortuzumab and the vandortuzumab-C002 had the good affinity for PC-3-4G5 cells.

For a further assay, the system named is C4-2B cells. In words: affinities against C4-2B cells (FIG. 7). Format: binding. The conditions noted are these: C4-2B cells highly express both Steap1 and PSMA antigens.
Another assay concerns PC-3 cells. The assay can be described thus: affinities against nature PC-3 cells (FIG. 10). Type of assay: binding. The conditions noted are these: PC-3 cells do not have either Steap1 or PSMA antigens.
The next assay relates to PC-3-4B9 cells. The assay can be described thus: affinities against PC-3-4B9 cells (FIG. 8). Format: binding. The conditions noted are these: PC-3-4B9 only express highly PSMA antigens.

Turning to `CC[C@@]1(O)C(=O)OCc2c1cc1n(c2=O)Cc2c-1nc1cc(F)c(C)c3c1c2[C@@H](NC(=O)OCC[N+](C)(C)Cc1ccc(NC(=O)[C@H](C)NC(=O)[C@@H](NC(=O)[C@H](CCC(=O)NCCOCCOCCNC(=O)c2ccc(C(=O)NCCCCC(=O)NCCCC[C@H](NC(=O)N[C@@H](CCC(=O)O)C(=O)O)C(=O)O)cc2)NC(=O)CCCN2C(=O)CC(S)C2=O)C(C)C)cc1)CC3` (stereo partly drawn) [C044], the IC50 in the assay with C4-2B cell line came to 7.87 nM. Take `CC[C@@]1(O)C(=O)OCc2c1cc1n(c2=O)Cc2c-1nc1cc(F)c(C)c3c1c2[C@@H](NC(=O)OCc1ccc(NC(=O)[C@H](C)NC(=O)[C@@H](NC(=O)[C@H](CCC(=O)N[C@H](C(=O)N[C@@H](C)C(=O)NC(=O)[C@H](CCC(=O)NC(c2ccccc2)(c2ccccc2)c2ccccc2)NC(=O)[C@@H]2CCCN2C(=O)[C@@H]2CCCN2C(=O)[C@H](CCCNC(=N)NC(c2ccccc2)(c2ccccc2)c2ccccc2)NC(=O)[C@H](CCCNC(=N)NC(c2ccccc2)(c2ccccc2)c2ccccc2)NC(=O)[C@H](CCCNC(=N)NC(c2ccccc2)(c2ccccc2)c2ccccc2)NC(=O)[C@H](CCC(=O)NC(c2ccccc2)(c2ccccc2)c2ccccc2)NC(=O)[C@H](CCCNC(=N)NC(c2ccccc2)(c2ccccc2)c2ccccc2)NC(=O)[C@H](CCCNC(=N)NC(c2ccccc2)(c2ccccc2)c2ccccc2)NC(=O)[C@H](CCCCNC(=O)OC(C)(C)C)NC(=O)[C@H](CCCCNC(=O)OC(C)(C)C)NC(=O)[C@H](CCCNC(=N)NC(c2ccccc2)(c2ccccc2)c2ccccc2)NC(=O)CNC(=O)OCC2c4ccccc4-c4ccccc42)C(C)C)NC(=O)CCCNC(=O)[C@H](CCCCNC(=O)COCCOCCOCCOCCOCCOCCOCCOCCOCCOC)NC(=O)CCCN2C(=O)C=CC2=O)C(C)C)cc1C(=O)NCCOCCOCCOCCOCCOCCOCCOCCOC)CC3` [compound 570]: the “in vivo antitumor activity over time” value in assay [1] is recorded as “better antitumor activity than the regular GGFG-Dxd conjugate”.

In turn, `CC[C@@]1(O)C(=O)OCc2c1cc1n(c2=O)Cc2c-1nc1cc(F)c(C)c3c1c2[C@@H](NC(=O)[C@H](C)NC(=O)[C@@H](NC(=O)[C@H](CCC(=O)NCCOCCOCCNC(=O)c1ccc(C(=O)NCCCCC(=O)NCCCC[C@H](NC(=O)N[C@@H](CCC(=O)O)C(=O)O)C(=O)O)cc1)NC(=O)C1CCN(C(=O)CS)CC1)C(C)C)CC3` [C060] gave a half-maximal inhibitory concentration (IC50) in the assay on C4-2B cell line of 7.57 nM. Molecule `CCc1c2c(nc3cc(F)c(NC(=O)CNC(=O)[C@H](C)NC(=O)[C@@H](NC(=O)[C@H](CCC(=O)NCCOCCOCCNC(=O)c4ccc(C(=O)NCCCCC(=O)NCCCC[C@H](NC(=O)N[C@@H](CCC(=O)O)C(=O)O)C(=O)O)cc4)NC(=O)CCCN4C(=O)CC(S)C4=O)C(C)C)cc13)-c1cc3c(c(=O)n1C2)COC(=O)[C@]3(O)CC` (stereo partly drawn) [C040] had a 50% inhibitory concentration (IC50) in the assay on C4-2B cell line of 4.27 nM. On the same count and under the same terms, for `CC[C@@]1(O)C(=O)OCc2c1cc1n(c2=O)Cc2c-1nc1cc(F)c(C)c3c1c2[C@@H](NC(=O)OCC[N+](C)(C)Cc1ccc(NC(=O)[C@H](C)NC(=O)[C@@H](NC(=O)[C@H](CCC(=O)N(CCNC(=O)CCOCCOCCNC(=O)c2ccc(C(=O)NCCCCC(=O)NCCCC[C@H](NC(=O)N[C@@H](CCC(=O)O)C(=O)O)C(=O)O)cc2)CCNC(=O)CCOCCOCCNC(=O)c2ccc(C(=O)NCCCCC(=O)NCCCC[C@H](NC(=O)N[C@@H](CCC(=O)O)C(=O)O)C(=O)O)cc2)NC(=O)CCCN2C(=O)CC(S)C2=O)C(C)C)cc1)CC3` (stereo partly drawn) [C045] the value was 6.76 nM.

B1: vandortuzumab-C002 (conjugate, chains of the INN, looked up)
VH: EVQLVESGGGLVQPGGSLRLSCAVSGYSITSDYAWNWVRQAPGKGLEWVGYISNSGSTSYNPSLKSRFTISRDTSKNTLYLQMNSLRAEDTAVYYCARERNYDYDDYYYAMDYWGQGTLVTVSS
VL: DIQMTQSPSSLSASVGDRVTITCKSSQSLLYRSNQKNYLAWYQQKPGKAPKLLIYWASTRESGVPSRFSGSGSGTDFTLTISSLQPEDFATYYCQQYYNYPRTFGQGTKVEIK
modifications: drug conjugate C002
In the case of B1, the “affinity against PC-3-4G5 cells” value with PC-3-4G5 cells was “good affinity”. In addition, the “affinity against C4-2B cells” value in the assay on C4-2B cells is “better affinity for the C4-2B cells than the naked (unconjugated) antibodies”. The “affinity against nature PC-3 cells” value with PC-3 cells is recorded as “not able to show the affinity at all”. Besides, in the assay on PC-3-4B9 cells, the “affinity against PC-3-4B9 cells” value is “had the affinity”.
